Legend:
recombinant human SIRT1 = biological target: T1, recombinant human SIRT1 (Homo sapiens, UniProt Q96EB6); experiment: SIRT1 fluorescent deacetylation assay (p53-382 acetylated peptide); assay type: biochemical
T1 sequence (Q96EB6 1-747): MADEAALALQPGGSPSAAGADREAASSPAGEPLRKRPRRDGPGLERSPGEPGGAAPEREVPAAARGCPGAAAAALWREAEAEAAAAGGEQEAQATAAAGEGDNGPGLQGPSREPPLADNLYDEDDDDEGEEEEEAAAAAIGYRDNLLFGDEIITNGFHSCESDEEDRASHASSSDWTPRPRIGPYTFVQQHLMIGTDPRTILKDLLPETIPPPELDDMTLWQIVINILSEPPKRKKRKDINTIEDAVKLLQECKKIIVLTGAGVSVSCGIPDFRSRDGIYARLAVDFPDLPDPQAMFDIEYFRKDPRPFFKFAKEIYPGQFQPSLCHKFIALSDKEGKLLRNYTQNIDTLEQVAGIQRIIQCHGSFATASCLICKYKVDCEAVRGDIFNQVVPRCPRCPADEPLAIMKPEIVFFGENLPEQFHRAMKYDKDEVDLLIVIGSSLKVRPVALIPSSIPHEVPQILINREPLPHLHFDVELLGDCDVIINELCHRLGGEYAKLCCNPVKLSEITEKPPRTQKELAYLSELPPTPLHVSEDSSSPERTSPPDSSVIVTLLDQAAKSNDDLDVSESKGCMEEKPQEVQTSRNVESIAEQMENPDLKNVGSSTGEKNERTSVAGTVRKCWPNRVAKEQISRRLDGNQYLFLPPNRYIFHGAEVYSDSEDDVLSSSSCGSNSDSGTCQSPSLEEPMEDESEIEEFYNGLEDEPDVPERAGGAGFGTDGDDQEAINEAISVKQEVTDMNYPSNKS
Method: To identify compounds that modulate SIRT1 activity, a number of small molecule libraries were screened using a fluorescent deacetylation assay in 96-well plates^26. The substrate used in the assay was a fluorogenic peptide based on the sequence encompassing the p53-K382 acetylation site, a known target of SIRT1 in vivo^20,21,27. […] The small molecule libraries included analogues of nicotinamide, ε-acetyl lysine, NAD^+, nucleotides, nucleotide analogues and purinergic ligands.
From 0.1 to 1 μg of SIRT1 and 1.5 μg of Sir2 were used per deacetylation assay (in 50 μl total reaction) as previously described^26. SIRT1 assays and certain of those for Sir2 employed the p53-382 acetylated substrate (‘Fluor de Lys-SIRT1’, BIOMOL) rather than FdL.
Themed compound libraries (BIOMOL) were used for primary and secondary screening. Most polyphenol compounds were dissolved at 10 mM in dimethylsulfoxide (DMSO) on the day of the assay. For water soluble compounds and negative controls, 1% v/v DMSO was added to the assay. In vitro fluorescence assay results were read in white ½-volume 96-well microplates (Corning Costar 3693) with a CytoFluor™ II fluorescence plate reader (PerSeptive Biosystems, Ex. 360 nm, Em. 460 nm, gain=85). […] Unless otherwise indicated all initial rate measurements were means of three or more replicates, obtained with single incubation times, at which point 5% or less of the substrate initially present had been deacetylated. Calculation of net fluorescence increases included subtraction of a blank value, which in the case of Sir2 was obtained by omitting the enzyme from the reaction and in the case of SIRT1 by adding an inhibitor (200 μM suramin or 1 mM nicotinamide) to the reaction prior to the acetylated substrate. A number of the polyphenols partially quenched the fluorescence produced in the assay and correction factors were obtained by determining the fluorescence increase due to a 3 μM spike of an FdL deacetylated standard (BIOMOL, catalog number KI-142). All error bars represent the standard error of the mean.
All SIRT1 rate measurements used in the calculation of “Ratio to Control Rate” were obtained with 25 μM NAD^+ and 25 μM p53-382 acetylated peptide substrate were performed as described above and in K. T. Howitz et al. Nature (2003) 425: 191. All ratio data were calculated from experiments in which the total deacetylation in the control reaction was 0.25-1.25 μM peptide or 1-5% of the initial concentration of acetylated peptide.

Human 293 = experiment: Survival of 293 cells (Coulter counter); assay type: cell-based; conditions: 50 micromolar
Text: The number of live cells each time point was counted using a Coulter counter.

C. elegans = C. elegans fat accumulation, Nile Red staining; assay type: in vivo; conditions: 100 μM
Method: Fat accumulation was visualized with Nile Red staining, as described further below and in Ashrafi K, et al. Nature 421:268-27 (2003).
Synchronized starved L1 worms were grown in the presence of Nile Red. Strains were grown on NGM plates at 25° C. for approximately 48 hours until the young adult stage was reached. 20-30 young adult worms were then washed 2× with M9 buffer and transferred to new NGM/Nile red experimental plates that contained either OP50 or HTT5 E. coli carrying the L4440 RNAi control vector.
Young adults were transferred to plates containing the appropriate vector, Nile Red stain and drug then maintained at 25° C.
Nile Red: Nile Red Powder (Sigma #N-3013) was dissolved in acetone at 500 μg/ml, diluted in 1× Phosphate Buffered Saline (PBS) including appropriate drug and applied to surface of Nematode Growth Media (NGM) plates previously seeded with OP50 or RNAi bacteria, at a final concentration of 0.05 μg/ml. Fat content was monitored and recorded by fluorescence microscopy.

HeLa S3 cells = experiment: Cellular deacetylase assay (TSA-insensitive FdL deacetylation); assay type: cell-based, human; conditions: 500 μM compound, 200 μM FdL, 1 μM TSA, 1 hour
Method: FdL (200 μM) is added to growth media and cells incubated for 1-3 hours to allow FdL to enter the cells and the lysine-deacetylated product (deAc-FdL) to accumulate intracellularly. Cells are lysed with detergent in the presence of 1 μM TSA, 1 mM nicotinamide. Addition of the non-cell-permeable Developer (BIOMOL) releases a fluorophor, specifically from deAc-FdL. b, SIRT1 activating polyphenols can stimulate TSA-insensitive, FdL deacetylation by HeLa S3 cells. Cells were grown adherently in DMEM/10% FCS and treated for 1 hour with 200 μM FdL, 1 μM TSA and either vehicle (0.5% final DMSO, Control) or 500 μM of the indicated compound. Intracellular accumulation of deAc-FdL was then determined as described briefly in a. […] Lysates were prepared and analyzed as above. […]
Themed compound libraries (BIOMOL) were used for primary and secondary screening. […] In vitro fluorescence assay results were read in white ½-volume 96-well microplates (Corning Costar 3693) with a CytoFluor™ II fluorescence plate reader (PerSeptive Biosystems, Ex. 360 nm, Em. 460 nm, gain=85). HeLa cells were grown and the cellular deacetylation assays were performed and read, as above, but in full-volume 96-well microplates (Corning Costar 3595). […]

Row | SMILES | v1/v2 (rate for pure SIRT1/BML-230 divided by that for pure SIRT1/resveratrol) (recombinant human SIRT1; R at 500 μM) | Stimulated SIRT1 activity compared with resveratrol (recombinant human SIRT1; all concentrations tested, 25 μM NAD+ and p53-382 peptide, 20 minutes) | Dissociation constant of SIRT1 complex compared with SIRT1/resveratrol (recombinant human SIRT1; inferred from two state model) | Toxicity on 293 cells (in words) (Human 293) | Fat staining (C. elegans; 24 hours, control 1% v/v DMSO) | Fat mobilization (C. elegans; 48 hours) | Effect on the cellular (TSA-insensitive) deacetylation signal (HeLa S3 cells)
1 | CSc1ccc(/C=C/c2cc(O)cc(O)c2)cc1 [BML-230, 3,5-dihydroxy-4′-thiomethyl-trans-stilbene] | ≤ 1.4 | exceeds | lower dissociation constant | The results indicate that thiomethyl (BML-230) was the least toxic on 293 cells. | Significant reduction | – | –
2 | O=C(/C=C/c1ccc(O)c(O)c1)c1ccc(O)cc1O [butein, 3,4,2′,4′-Tetrahydroxychalcone] | – | – | – | – | – | stimulate fat mobilization | no effect
